# Measured values as given in US10716771B2, “Pharmaceutical composition for preventing or treating immune diseases or inflammatory diseases, containing biguanide derivative compound as active ingredient” (THE CATHOLIC UNIVERSITY OF KOREA INDUSTRY-ACADEMIC …, priority 2013, dated 2020).
# Experiments:
# TNF-α = TNF-α expression in normal (human) cells; type: cell-based; settings: compared with metformin
# Description: In order to evaluate an effect of suppressing the expression of the inflammatory cytokine of the biguanide derivative compound of the present invention, the incubated supernatant was collected and the expression degrees of IL-17 and TNF-α of a mouse were examined by using a sandwich ELISA. […] of a monoclonal anti-IL-17 or anti-TNF-α was reacted in a 96-well plate at 4° C. overnight and then a non-specific binding was blocked by a blocking solution (1% BSA/PBST) after the reaction. An IL-17 or TNF-α recombinant was continuously diluted by 1/2 to be used as a standard, added with the cell-incubated supernatant, and reacted at room temperature for 2 hrs. Thereafter, biotinylated anti-IL-17 or anti-TNF-α was added and reacted at room temperature for 2 hrs, washed four times after the reaction, diluted with a diluted ExtraAvidin-alkaline phosphatase conjugate, and reacted at room temperature for 2 hrs. After the reaction, a PNPP/DEA was added and colored, and absorbance was measured at a wavelength of 405 nm.
# In order to evaluate a development possibility of the biguanide derivative compound of the present invention as an agent for preventing or treating immune diseases, effects of modulating cytotoxicity and generation of inflammatory cytokines by targeting normal cells were measured by the same method as Example 8.
# IL-17 = IL-17 generation in mouse spleen cells under Th17 differentiation, sandwich ELISA; type: cell-based; settings: mouse spleen cells under Th17 stimulating condition, 3 days
# Description: In order to verify whether the biguanide derivative compound of the present invention has the activity of […] generation of IL-17 as an inflammatory cytokine in a Th17 cell which is a pathogenic cell, an expression degree of IL-17 was measured by an ELISA assay.
# Spleen cells were obtained from a normal mouse of C57BL/6 (Orient Company, Korea). That is, the tissue of the spleen extracted from the mouse was finely grinded by using a teasing slide and then erythrocytes in the spleen were removed by an erythrocyte hemolysis solution. Thereafter, a PBS buffer solution was added, centrifuged, and washed to obtain spleen cells.
# 1×10^6 of the spleen cells from the mouse prepared through Example <2-1> were divided in a 24-well plate coated with […] of anti-CD3 antibody and simultaneously treated with 1 μg/mL of anti-CD28 antibody, 2 ng/ml of TGF-β, 20 ng/ml of IL-6 20 ng/ml, 2 μg/ml of anti-IL-4, and 2 μg/ml of anti-IFNr as a condition capable of stimulating Th17 cells, and then the cells were incubated for 3 days to induce the differentiation of the Th17 cells. […]
# In order to measure an amount of the generated IL-17 cytokine, a supernatant of the incubated cells was collected and the IL-17 expression degree was examined by using a sandwich ELISA. […] Thereafter, a PNPP/DEA solution was added and colored, and then the absorbance was measured at a wavelength of 405 nm.
Structure (SMILES),expression of TNF-α (TNF-α),"IL-17 generated amount, dependence on treatment concentration (IL-17; 2 μM, 20 μM and 200 μM)","generated amount of IL-17 (IL-17; 200 μM, sandwich ELISA)"
"N=C(N)NC(=N)Nc1ccc(F)cc1F [SD-000217, 1-(2,4-difluorophenyl)biguanide]",suppressed,,
"CC(C)NC(=N)NC(=N)N [SD-000196, 1-isopropylbiguanide]",,reduced depending on the treatment concentration,completely suppressed
"NC(N)=N/C(N)=N/c1cccc(F)c1 [SD-000216, 1-(3-fluorophenyl)biguanide]",suppressed,,
